Measured values: article PMC10648541, “Design, Synthesis, and Antiproliferative Activity of Selective Histone Deacetylases 6 Inhibitors Containing a Tetrahydropyridopyrimidine Scaffold” (Molecules, 2023)
Entries after “also recorded” stand apart in the source; their conditions may differ.

Columns and labels:
MDA-MB-231/ATCC = test: NCI-60 antiproliferative screening, MDA-MB-231/ATCC; assay type: cell-based; settings: Homo sapiens, MDA-MB-231/ATCC (Breast Cancer), read-out: Inhibition% values at 10 μM concentration
Description: (§1) Then, 8f was submitted to NCI for antiproliferative evaluation against 59 different tumor cell lines. The cancer types of the NCI-60 program include leukemia, non-small cell lung cancer (NSCLC), colon cancer, CNS cancer, melanoma, ovary cancer, renal cancer, prostate cancer, and breast cancer.

PC-3 = test: NCI-60 antiproliferative screening, PC-3; assay type: cell-based; settings: Homo sapiens, PC-3 (Prostate Cancer), read-out: Inhibition% values at 10 μM concentration
Description: as §1

ACHN = test: NCI-60 antiproliferative screening, ACHN; assay type: cell-based; settings: Homo sapiens, ACHN (Renal Cancer), read-out: Inhibition% values at 10 μM concentration
Description: as §1

HDAC5 = target: T1, HDAC5 (Homo sapiens, UniProt Q9UQL6); test: In vitro HDAC enzyme assay (Reaction Biology Corporation), HDAC5; assay type: biochemical; settings: Table 2 isozyme screen; duplicate, SD < 15%
T1 construct: purchased Reaction Biology Corporation

KM12 = test: NCI-60 antiproliferative screening, KM12; assay type: cell-based; settings: Homo sapiens, KM12 (Colon Cancer), read-out: Inhibition% values at 10 μM concentration
Description: as §1

M14 = test: NCI-60 antiproliferative screening, M14; assay type: cell-based; settings: Homo sapiens, M14 (Melanoma), read-out: Inhibition% values at 10 μM concentration
Description: as §1

SK-MEL-5 = test: NCI-60 antiproliferative screening, SK-MEL-5; assay type: cell-based; settings: Homo sapiens, SK-MEL-5 (Melanoma), read-out: Inhibition% values at 10 μM concentration
Description: as §1

SK-MEL-2 = test: NCI-60 antiproliferative screening, SK-MEL-2; assay type: cell-based; settings: Homo sapiens, SK-MEL-2 (Melanoma), read-out: Inhibition% values at 10 μM concentration
Description: as §1

U251 = test: NCI-60 antiproliferative screening, U251; assay type: cell-based; settings: Homo sapiens, U-251, U251 (CNS Cancer), read-out: Inhibition% values at 10 μM concentration
Description: as §1

HCT-15 = test: NCI-60 antiproliferative screening, HCT-15; assay type: cell-based; settings: Homo sapiens, HCT-15 (Colon Cancer), read-out: Inhibition% values at 10 μM concentration
Description: as §1

EKVX = test: NCI-60 antiproliferative screening, EKVX; assay type: cell-based; settings: Homo sapiens, EKVX (Non-Small Cell Lung Cancer), read-out: Inhibition% values at 10 μM concentration
Description: as §1

[1] = tested on: acetylated histone 3 (H3); test: Western blot, acetylated histone 3 in RPMI-8226 cells; assay type: cell-based, human; settings: 24 h, 1, 5, and 10 μM
Method: (§2) RPMI-8226 cells (1 × 10^6) were seeded overnight and incubated with compound 8f for 24 h on indicated concentrations. Cell extract was prepared by lysing cultured cells with a mammalian protein extraction reagent supplemented with EDTA-free protease inhibitor for 15 min. SDS-PAGE and immunoblot analysis were conducted as described. Antibodies for Ac-H3 (abcom, AB32129) and Ac-ɑ-tubulin (Cell Signaling, 2144) were used.

acetylated α-tubulin = test: Western blot, acetylated α-tubulin in RPMI-8226 cells; assay type: cell-based, human; settings: 24 h, 1, 5, and 10 μM
Method: as §2

SW-620 = test: NCI-60 antiproliferative screening, SW-620; assay type: cell-based; settings: Homo sapiens, SW-620 (Colon Cancer), read-out: Inhibition% values at 10 μM concentration
Description: as §1

SR = test: NCI-60 antiproliferative screening, SR; assay type: cell-based; settings: Homo sapiens, SR (Leukemia), read-out: Inhibition% values at 10 μM concentration
Description: as §1

SNB-19 = test: NCI-60 antiproliferative screening, SNB-19; assay type: cell-based; settings: Homo sapiens, SNB-19 (CNS Cancer), read-out: Inhibition% values at 10 μM concentration
Description: as §1

MDA-MB-468 = test: NCI-60 antiproliferative screening, MDA-MB-468; assay type: cell-based; settings: Homo sapiens, MDA-MB-468 (Breast Cancer), read-out: Inhibition% values at 10 μM concentration
Description: as §1

HT29 = test: NCI-60 antiproliferative screening, HT29; assay type: cell-based; settings: Homo sapiens, HT-29, HT29 (Colon Cancer), read-out: Inhibition% values at 10 μM concentration
Description: as §1

HL60 = test: NCI-60 antiproliferative screening, HL60; assay type: cell-based; settings: Homo sapiens, HL-60, HL60 (Leukemia), read-out: Inhibition% values at 10 μM concentration
Description: as §1

HCC-2998 = test: NCI-60 antiproliferative screening, HCC-2998; assay type: cell-based; settings: Homo sapiens, HCC-2998 (Colon Cancer), read-out: Inhibition% values at 10 μM concentration
Description: as §1

NCI-H522 = test: NCI-60 antiproliferative screening, NCI-H522; assay type: cell-based; settings: Homo sapiens, NCI-H522 (Non-Small Cell Lung Cancer), read-out: Inhibition% values at 10 μM concentration
Description: as §1

HDAC8 = target: T2, HDAC8 (Homo sapiens, UniProt Q9BY41); test: In vitro HDAC enzyme assay (Reaction Biology Corporation), HDAC8; assay type: biochemical; settings: Table 2 isozyme screen; duplicate, SD < 15%
T2 construct: purchased Reaction Biology Corporation

786-0 = test: NCI-60 antiproliferative screening, 786-0; assay type: cell-based; settings: Homo sapiens, 786-0 (Renal Cancer), read-out: Inhibition% values at 10 μM concentration
Description: as §1

SN12C = test: NCI-60 antiproliferative screening, SN12C; assay type: cell-based; settings: Homo sapiens, SN12C (Renal Cancer), read-out: Inhibition% values at 10 μM concentration
Description: as §1

HDAC3 = target: T3, HDAC3 (Homo sapiens, UniProt O15379); test: In vitro HDAC enzyme assay (Reaction Biology Corporation), HDAC3; assay type: biochemical; settings: Table 2 isozyme screen; duplicate, SD < 15%
T3 construct: purchased Reaction Biology Corporation

UACC-257 = test: NCI-60 antiproliferative screening, UACC-257; assay type: cell-based; settings: Homo sapiens, read-out: Inhibition% values at 10 μM concentration
Description: as §1

SK-MEL-28 = test: NCI-60 antiproliferative screening, SK-MEL-28; assay type: cell-based; settings: Homo sapiens, SK-MEL-28 (Melanoma), read-out: Inhibition% values at 10 μM concentration
Description: as §1

IGROV1 = test: NCI-60 antiproliferative screening, IGROV1; assay type: cell-based; settings: Homo sapiens, IGROV-1, IGROV1 (Ovarian Cancer), read-out: Inhibition% values at 10 μM concentration
Description: as §1

LOX IMVI = test: NCI-60 antiproliferative screening, LOX IMVI; assay type: cell-based; settings: Homo sapiens, LOX IMVI (Melanoma), read-out: Inhibition% values at 10 μM concentration
Description: as §1

OVCAR-4 = test: NCI-60 antiproliferative screening, OVCAR-4; assay type: cell-based; settings: Homo sapiens, OVCAR-4 (Ovarian Cancer), read-out: Inhibition% values at 10 μM concentration
Description: as §1

T2 sequence (Q9BY41 whole entry): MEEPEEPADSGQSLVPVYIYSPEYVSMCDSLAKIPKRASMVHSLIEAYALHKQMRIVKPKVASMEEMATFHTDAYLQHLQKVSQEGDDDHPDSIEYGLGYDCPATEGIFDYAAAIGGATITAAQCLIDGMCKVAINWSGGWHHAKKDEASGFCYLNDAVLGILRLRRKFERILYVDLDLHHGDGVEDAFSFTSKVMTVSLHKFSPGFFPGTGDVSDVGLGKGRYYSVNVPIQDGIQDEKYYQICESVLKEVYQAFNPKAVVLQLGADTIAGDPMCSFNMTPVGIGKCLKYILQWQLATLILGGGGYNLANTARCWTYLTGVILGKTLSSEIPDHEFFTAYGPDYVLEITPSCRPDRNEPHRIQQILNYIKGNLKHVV
T1 sequence (Q9UQL6 whole entry): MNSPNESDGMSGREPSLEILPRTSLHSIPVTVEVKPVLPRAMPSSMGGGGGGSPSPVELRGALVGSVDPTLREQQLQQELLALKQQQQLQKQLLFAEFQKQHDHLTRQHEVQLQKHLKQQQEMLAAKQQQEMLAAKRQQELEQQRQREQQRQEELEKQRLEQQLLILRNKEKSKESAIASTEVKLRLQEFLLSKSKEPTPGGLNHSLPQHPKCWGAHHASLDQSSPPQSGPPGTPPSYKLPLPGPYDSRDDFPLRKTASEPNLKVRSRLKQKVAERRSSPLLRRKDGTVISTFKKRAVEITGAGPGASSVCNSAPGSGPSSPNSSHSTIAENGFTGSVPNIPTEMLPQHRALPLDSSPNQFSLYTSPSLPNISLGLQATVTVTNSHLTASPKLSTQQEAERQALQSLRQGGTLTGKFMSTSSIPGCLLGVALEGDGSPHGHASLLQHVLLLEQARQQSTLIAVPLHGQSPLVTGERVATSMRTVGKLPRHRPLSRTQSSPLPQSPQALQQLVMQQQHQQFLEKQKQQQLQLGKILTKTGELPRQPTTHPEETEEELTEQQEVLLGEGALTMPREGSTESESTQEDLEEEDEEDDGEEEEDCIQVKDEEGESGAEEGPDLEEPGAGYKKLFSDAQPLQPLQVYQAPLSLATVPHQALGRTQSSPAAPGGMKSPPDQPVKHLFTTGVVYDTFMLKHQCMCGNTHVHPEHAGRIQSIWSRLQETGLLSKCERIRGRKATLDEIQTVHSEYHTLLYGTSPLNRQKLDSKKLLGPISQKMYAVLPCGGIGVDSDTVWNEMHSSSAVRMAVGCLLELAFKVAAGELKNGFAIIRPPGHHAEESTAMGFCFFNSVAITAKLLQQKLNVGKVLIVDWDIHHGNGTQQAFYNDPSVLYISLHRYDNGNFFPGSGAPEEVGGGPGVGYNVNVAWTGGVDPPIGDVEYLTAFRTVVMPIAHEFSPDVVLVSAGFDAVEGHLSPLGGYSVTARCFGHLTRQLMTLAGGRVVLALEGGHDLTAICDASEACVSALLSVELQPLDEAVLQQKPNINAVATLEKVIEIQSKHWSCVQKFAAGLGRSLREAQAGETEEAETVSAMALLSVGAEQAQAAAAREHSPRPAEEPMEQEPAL
T3 sequence (O15379 whole entry): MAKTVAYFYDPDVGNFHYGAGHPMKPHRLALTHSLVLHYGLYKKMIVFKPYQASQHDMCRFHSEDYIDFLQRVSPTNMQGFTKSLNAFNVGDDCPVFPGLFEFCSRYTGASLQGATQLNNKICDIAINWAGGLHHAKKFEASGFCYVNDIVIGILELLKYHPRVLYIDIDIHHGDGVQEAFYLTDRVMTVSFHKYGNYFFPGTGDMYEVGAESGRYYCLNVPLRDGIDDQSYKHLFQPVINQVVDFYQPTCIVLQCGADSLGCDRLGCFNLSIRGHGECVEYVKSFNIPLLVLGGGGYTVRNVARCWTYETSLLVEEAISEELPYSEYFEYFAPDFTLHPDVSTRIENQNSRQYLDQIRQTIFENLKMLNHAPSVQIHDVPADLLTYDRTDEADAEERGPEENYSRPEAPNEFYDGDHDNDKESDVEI
T3 sequence (Q9Y618 395-489 partner limits assumed): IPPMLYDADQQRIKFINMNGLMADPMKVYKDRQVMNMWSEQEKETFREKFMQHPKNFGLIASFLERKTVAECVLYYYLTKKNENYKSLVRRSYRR

With COc1cccc(-c2nc3c(c(-c4cccc(OC)c4)n2)CCN(C(=O)CCCCCCC(=O)NO)C3)c1 [Compound 8f, 8-(2,4-Bis(3-methoxyphenyl)-5,8-dihydropyrido [3,4-d]pyrimidin-7(6H)-yl)-N-hydroxy-8-oxooctanamide] as the molecule, how does the inhibition at 10 µM (MDA-MB-231/ATCC) read?
Its inhibition at 10 µM is 100%.

And the inhibition at 10 µM (PC-3)?
Its inhibition at 10 µM is 83.3%.

And the inhibition at 10 µM (ACHN)?
Its inhibition at 10 µM is 100%.

What about the “HDAC5 IC50” value (HDAC5) of the same molecule?
Its value is “poor activity”.

What about the IC50 (HDAC5) of the same molecule?
Its IC50 is > 10000 nM.

And the inhibition at 10 µM (KM12)?
Its inhibition at 10 µM is 88.4%.

What about the inhibition at 10 µM (M14) of the same molecule?
Its inhibition at 10 µM is 90.5%.

What about the inhibition at 10 µM (SK-MEL-5) of the same molecule?
The inhibition at 10 µM was 100%.

What about the inhibition at 10 µM (SK-MEL-2) of the same molecule?
Its inhibition at 10 µM is 100%.

What about the inhibition at 10 µM (U251) of the same molecule?
Its inhibition at 10 µM is 100%.

What about the inhibition at 10 µM (HCT-15) of the same molecule?
The inhibition at 10 µM was 100%.

What about the inhibition at 10 µM (EKVX) of the same molecule?
The inhibition at 10 µM was 84.4%.

And the “levels of acetylated histone 3 (H3)” value [1]?
Its value is “only modest changes”.

What about the “levels of acetylated α-tubulin” value (acetylated α-tubulin) of the same molecule?
Its value is “increase the levels of acetylated α-tubulin in a dose-dependent manner; also recorded: elevated the levels of acetylated α-tubulin in a dose-dependent manner”.

And the inhibition at 10 µM (SW-620)?
The inhibition at 10 µM was 100%.

What about the inhibition at 10 µM (SR) of the same molecule?
Its inhibition at 10 µM is 84.3%.

What about the inhibition at 10 µM (SNB-19) of the same molecule?
The inhibition at 10 µM was 100%.

And the inhibition at 10 µM (MDA-MB-468)?
Its inhibition at 10 µM is 100%.

And the melting point?
Its melting point is 117 to 118 °C.

What about the inhibition at 10 µM (HT29) of the same molecule?
The inhibition at 10 µM was 95.3%.

And the inhibition at 10 µM (HL60)?
Its inhibition at 10 µM is 100%.

And the inhibition at 10 µM (HCC-2998)?
Its inhibition at 10 µM is 100%.

What about the inhibition at 10 µM (NCI-H522) of the same molecule?
The inhibition at 10 µM was 69.1%.

What about the “HDAC8 IC50” value (HDAC8) of the same molecule?
Its value is “poor activity”.

What about the IC50 (HDAC8) of the same molecule?
Its IC50 is 510 nM.

What about the inhibition at 10 µM (786-0) of the same molecule?
Its inhibition at 10 µM is 89.1%.

What about the inhibition at 10 µM (SN12C) of the same molecule?
Its inhibition at 10 µM is 100%.

What about the IC50 (HDAC3) of the same molecule?
Its IC50 is 411 nM.

And the inhibition at 10 µM (UACC-257)?
Its inhibition at 10 µM is 98.7%.

And the inhibition at 10 µM (SK-MEL-28)?
The inhibition at 10 µM was 100%.

And the inhibition at 10 µM (IGROV1)?
Its inhibition at 10 µM is 100%.

And the inhibition at 10 µM (LOX IMVI)?
Its inhibition at 10 µM is 100%.

What about the inhibition at 10 µM (OVCAR-4) of the same molecule?
Its inhibition at 10 µM is 67.1%.
